Test results: article PMC8232238 (Cells, 2021)

Target: T1, HDAC11 (Homo sapiens, UniProt Q96DB2)
T1 construct: purchased Reaction Biology corporation (contract assay)
T1 sequence (Q96DB2 1-347): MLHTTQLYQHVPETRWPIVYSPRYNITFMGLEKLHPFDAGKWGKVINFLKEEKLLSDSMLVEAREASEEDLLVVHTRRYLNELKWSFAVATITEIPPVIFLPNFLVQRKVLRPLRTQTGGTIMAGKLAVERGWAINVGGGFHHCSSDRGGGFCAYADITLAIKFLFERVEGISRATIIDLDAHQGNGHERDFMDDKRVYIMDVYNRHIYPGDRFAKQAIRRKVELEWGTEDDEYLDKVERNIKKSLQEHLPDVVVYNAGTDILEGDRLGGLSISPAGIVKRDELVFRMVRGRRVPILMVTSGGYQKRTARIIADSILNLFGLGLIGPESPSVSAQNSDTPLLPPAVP
Experiment: HDAC11 enzyme inhibition assay (single point and 10-dose IC50, Reaction Biology)
Format: biochemical
Experimental: Against HDAC6, inhibition was determined using 0.01 µM of the inhibitor.
All IC50 measurements we performed by Reaction Biology corporation. Compounds were tested in […]
dilution starting at 1 uM.
Substrate for HDAC11: 50 uM Fluorogenic HDAC Class2a Substrate […]
(Trifluoroacetyl Lysine).
(RHK(Ac)K(Ac)AMC). IC50 values were calculated using the GraphPad Prism 4 program based on a sigmoidal dose-response equation. […]

## O=C(CCCCCN1C(=O)c2cccc3cc(NC(=O)c4ccccc4)cc(c23)C1=O)NO [KNH019]
Average of two independent measurements
  IC50: 290 ± 35 nM
Selectivity for HDAC6 over HDAC11
  Selectivity factor (SF) HDAC11 against HDAC6: 290
Single point, inhibitor 1.0 μM, average of two measurements, ±2%
  HDAC11 average enzyme isoform activity (percentage of full enzyme activity): 67.5%
